Source: PubChem BioAssay (NCI)
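Exposure lasted 48 hours, with cells grown in 96-well plates and compounds tested at five concentrations. Definition used: TGI = concentration required for complete inhibition of growth.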

Columns and labels:
Assay in all cases: DTP human tumour cell line panel, 48 h
CAKI-1 renal = tested on: CAKI-1 renal
SNB-19 CNS = tested on: SNB-19 CNS
RXF 393 renal = tested on: RXF 393 renal
HL-60(TB) leukemia = tested on: HL-60(TB) leukemia
UACC-257 melanoma = tested on: UACC-257 melanoma
HS 578T breast = tested on: HS 578T breast
MCF7 breast = tested on: MCF7 breast
RPMI-8226 leukemia = tested on: RPMI-8226 leukemia
SK-MEL-5 melanoma = tested on: SK-MEL-5 melanoma
NCI-H23 lung = tested on: NCI-H23 lung
HCT-15 colon = tested on: HCT-15 colon
HT29 colon = tested on: HT29 colon
MDA-MB-435 = tested on: MDA-MB-435
SK-OV-3 ovarian = tested on: SK-OV-3 ovarian
SK-MEL-2 melanoma = tested on: SK-MEL-2 melanoma
HCT-116 colon = tested on: HCT-116 colon
K-562 leukemia = tested on: K-562 leukemia
786-0 renal = tested on: 786-0 renal
SR leukemia = tested on: SR leukemia
PC-3 prostate = tested on: PC-3 prostate
IGROV1 ovarian = tested on: IGROV1 ovarian
SF-295 CNS = tested on: SF-295 CNS
SNB-75 CNS = tested on: SNB-75 CNS
OVCAR-8 ovarian = tested on: OVCAR-8 ovarian
SK-MEL-28 melanoma = tested on: SK-MEL-28 melanoma
T-47D breast = tested on: T-47D breast
EKVX NSCLC = tested on: EKVX NSCLC
MDA-N = tested on: MDA-N
NCI-H522 lung = tested on: NCI-H522 lung
OVCAR-4 ovarian = tested on: OVCAR-4 ovarian
OVCAR-5 ovarian = tested on: OVCAR-5 ovarian
SW-620 colon = tested on: SW-620 colon
SF-268 CNS = tested on: SF-268 CNS
NCI-H460 lung = tested on: NCI-H460 lung
M14 melanoma = tested on: M14 melanoma
UACC-62 melanoma = tested on: UACC-62 melanoma
NCI/ADR-RES ovarian = tested on: NCI/ADR-RES ovarian
LOX IMVI melanoma = tested on: LOX IMVI melanoma
HOP-62 NSCLC = tested on: HOP-62 NSCLC
COLO 205 colon = tested on: COLO 205 colon
MDA-MB-231 breast = tested on: MDA-MB-231 breast
SN12C renal = tested on: SN12C renal
U251 CNS = tested on: U251 CNS
CCRF-CEM leukemia = tested on: CCRF-CEM leukemia
MOLT-4 leukemia = tested on: MOLT-4 leukemia
A549 NSCLC = tested on: A549 NSCLC
TK-10 renal = tested on: TK-10 renal
BT-549 breast = tested on: BT-549 breast
MALME-3M melanoma = tested on: MALME-3M melanoma
ACHN renal = tested on: ACHN renal
SF-539 CNS = tested on: SF-539 CNS
OVCAR-3 ovarian = tested on: OVCAR-3 ovarian
HOP-92 NSCLC = tested on: HOP-92 NSCLC
DU-145 prostate = tested on: DU-145 prostate
KM12 colon = tested on: KM12 colon
NCI-H226 lung = tested on: NCI-H226 lung
A498 renal = tested on: A498 renal
UO-31 renal = tested on: UO-31 renal

CC1=NN2C(=O)CC(=O)N=C2S1
TGI (CAKI-1 renal): > 100 µM
TGI (SNB-19 CNS): > 100 µM
TGI (RXF 393 renal): > 100 µM
TGI (HL-60(TB) leukemia): > 100 µM
TGI (UACC-257 melanoma): > 100 µM
TGI (HS 578T breast): > 100 µM
TGI (MCF7 breast): > 100 µM
TGI (RPMI-8226 leukemia): > 100 µM
TGI (SK-MEL-5 melanoma): > 100 µM
TGI (NCI-H23 lung): > 100 µM
TGI (HCT-15 colon): > 100 µM
TGI (HT29 colon): > 100 µM
TGI (MDA-MB-435): > 100 µM
TGI (SK-OV-3 ovarian): > 100 µM
TGI (SK-MEL-2 melanoma): > 100 µM
TGI (HCT-116 colon): > 100 µM
TGI (K-562 leukemia): > 100 µM
TGI (786-0 renal): > 100 µM
TGI (SR leukemia): > 100 µM
TGI (PC-3 prostate): > 100 µM
TGI (IGROV1 ovarian): > 100 µM
TGI (SF-295 CNS): > 100 µM
TGI (SNB-75 CNS): > 100 µM
TGI (OVCAR-8 ovarian): > 100 µM
TGI (SK-MEL-28 melanoma): > 100 µM
TGI (T-47D breast): > 100 µM
TGI (EKVX NSCLC): > 100 µM
TGI (MDA-N): > 100 µM
TGI (NCI-H522 lung): > 100 µM
TGI (OVCAR-4 ovarian): > 100 µM
TGI (OVCAR-5 ovarian): > 100 µM
TGI (SW-620 colon): > 100 µM
TGI (SF-268 CNS): > 100 µM
TGI (NCI-H460 lung): > 100 µM
TGI (M14 melanoma): > 100 µM
TGI (UACC-62 melanoma): > 100 µM
TGI (NCI/ADR-RES ovarian): > 100 µM
TGI (LOX IMVI melanoma): > 100 µM
TGI (HOP-62 NSCLC): > 100 µM
TGI (COLO 205 colon): > 100 µM
TGI (MDA-MB-231 breast): > 100 µM
TGI (SN12C renal): > 100 µM
TGI (U251 CNS): > 100 µM
TGI (CCRF-CEM leukemia): > 100 µM
TGI (MOLT-4 leukemia): > 100 µM
TGI (A549 NSCLC): > 100 µM
TGI (TK-10 renal): > 100 µM
TGI (BT-549 breast): > 100 µM
TGI (MALME-3M melanoma): > 100 µM
TGI (ACHN renal): > 100 µM
TGI (SF-539 CNS): > 100 µM
TGI (OVCAR-3 ovarian): > 100 µM
TGI (HOP-92 NSCLC): > 100 µM
TGI (DU-145 prostate): > 100 µM
TGI (KM12 colon): > 100 µM
TGI (NCI-H226 lung): > 100 µM

c1ccc2cc(OCC3CO3)c(OCC3CO3)cc2c1 (configuration not stated)
TGI (CAKI-1 renal): 37.6 µM
TGI (SNB-19 CNS): 17.7 µM
TGI (RXF 393 renal): 1.47 µM
TGI (HL-60(TB) leukemia): 45.3 µM
TGI (UACC-257 melanoma): 24.1 µM
TGI (HS 578T breast): 20.3 µM
TGI (MCF7 breast): 10.1 µM
TGI (RPMI-8226 leukemia): 9.8 µM
TGI (SK-MEL-5 melanoma): 21.2 µM
TGI (NCI-H23 lung): 12.8 µM
TGI (HCT-15 colon): 16.6 µM
TGI (HT29 colon): 20.1 µM
TGI (MDA-MB-435): 21.7 µM
TGI (SK-OV-3 ovarian): 22.3 µM
TGI (SK-MEL-2 melanoma): 29 µM
TGI (HCT-116 colon): 3.11 µM
TGI (K-562 leukemia): 25.1 µM
TGI (786-0 renal): 12.9 µM
TGI (SR leukemia): 2.15 µM
TGI (PC-3 prostate): 32.1 µM
TGI (IGROV1 ovarian): 11.1 µM
TGI (SF-295 CNS): 8.59 µM
TGI (SNB-75 CNS): 18.6 µM
TGI (OVCAR-8 ovarian): 12.2 µM
TGI (SK-MEL-28 melanoma): 26.1 µM
TGI (T-47D breast): 45.4 µM
TGI (EKVX NSCLC): 24.1 µM
TGI (MDA-N): 22.9 µM
TGI (NCI-H522 lung): 5.79 µM
TGI (A498 renal): 24.7 µM
TGI (OVCAR-5 ovarian): 23.4 µM
TGI (SW-620 colon): 13.9 µM
TGI (UO-31 renal): 21.8 µM
TGI (SF-268 CNS): 13.3 µM
TGI (NCI-H460 lung): 15.8 µM
TGI (M14 melanoma): 13.3 µM
TGI (UACC-62 melanoma): 17.6 µM
TGI (NCI/ADR-RES ovarian): 27.3 µM
TGI (LOX IMVI melanoma): 12 µM
TGI (HOP-62 NSCLC): 13.6 µM
TGI (COLO 205 colon): 25.3 µM
TGI (MDA-MB-231 breast): 55.1 µM
TGI (SN12C renal): 15 µM
TGI (U251 CNS): 13.9 µM
TGI (CCRF-CEM leukemia): 1.48 µM
TGI (MOLT-4 leukemia): 16.5 µM
TGI (A549 NSCLC): 30 µM
TGI (TK-10 renal): 49.2 µM
TGI (BT-549 breast): 5.57 µM
TGI (MALME-3M melanoma): 36.5 µM
TGI (ACHN renal): 6.05 µM
TGI (SF-539 CNS): 9.13 µM
TGI (OVCAR-3 ovarian): 27.9 µM
TGI (HOP-92 NSCLC): 23.5 µM
TGI (DU-145 prostate): 16.7 µM
TGI (KM12 colon): 26.7 µM
